Measurements as given in US4029671A, “3-[(5-nitro-2-imidazolyl)pyrazol-5-yl]oxamic acid derivatives” (priority 1976, dated 1977).
Converted amounts (≈) assume the structure as drawn. Structures can show the parent of a compound that is named as a salt.

Tests used:
Salmonella typhimurium = assay: Control of infections caused by Salmonella typhimurium in chickens (Chart 2); assay type: in vivo; conditions: 60 mg./kg. subcutaneous, day-old chicks, 5 per group, 6 days observation
Experimental: The efficacy of the novel compounds in the control of infections caused by Salmonella typhimurium in chickens was evaluated in the following manner. The test was carried out using day-old chicks weighing approximately 35 g. each. The chicks were divided into groups of 5 chicks per each dosage level. A portion of the chicks received the test compound which was suspended in 0.2 ml. of polyethylene glycol 200 and administered subcutaneously in the neck. […] All the chicks were challenged with a 1:200 dilution of a culture of the organism, 0.1 ml. of the dilution being injected into each chick in the leg intramuscularly. […] The test compounds are identified in the same manner as set forth in experiment 1. In the chart, column 1 lists the compounds tested; column 2, the dosage of test compound in mg./kg.; and column 3, the survival ratio.

[1] = test system: Peptostreptococcus anaerobius 1428; assay: Agar dilution susceptibility of anaerobic bacteria (Chart 1); assay type: cell-based; conditions: Peptostreptococcus anaerobius, 1428, 24 h, read-out: 24 Hr. MIC
[2] = test system: Bacteroides fragilis sp. fragilis 1451; assay: as above; assay type: cell-based; conditions: Bacteroides fragilis, 24 h, read-out: 24 Hr. MIC
[3] = test system: Fusobacterium symbiosum 1470; assay: as above; assay type: cell-based; conditions: Fusobacterium, 1470, 24 h, read-out: 24 Hr. MIC
[4] = test system: Actinomyces israelii W855; assay: as above; assay type: cell-based; conditions: 24 h, agar dilution, 37° C., read-out: 24 Hr. MIC
[5] = test system: Bacteroides fragilis sp. fragilis 1877; assay: as above; assay type: cell-based
[6] = test system: Bacteroides fragilis sp. fragilis 108; assay: as above; assay type: cell-based
[7] = test system: Bacteroides melaninogenicus 2736; assay: as above; assay type: cell-based; conditions: 2736, 24 h, read-out: 24 Hr. MIC
[8] = test system: Bacteroides fragilis sp. fragilis 104; assay: as above; assay type: cell-based; conditions: Bacteroides fragilis, 24 h, read-out: 24 Hr. MIC
[9] = test system: Bacteroides corrodens 1874; assay: as above; assay type: cell-based; conditions: Eikenella corrodens, 1874, 24 h, read-out: 24 Hr. MIC
Peptococcus prevoti 1281 = assay: as above; assay type: cell-based; conditions: 24 h, read-out: 24 Hr. MIC, agar dilution, 37° C.
[10] = test system: Clostridium perfringens 81; assay: microbe, parasite or virus in culture; assay type: cell-based; conditions: Clostridium perfringens, 81, 24 h, read-out: 24 Hr. MIC, agar dilution, 37° C.
[11] = test system: Propionibacterium acnes 79; assay: Agar dilution susceptibility of anaerobic bacteria (Chart 1); assay type: cell-based; conditions: Cutibacterium acnes, 79, 24 h, read-out: 24 Hr. MIC
[12] = test system: Bacteroides fragilis sp. thetaiotaomicron 1900A; assay: as above; assay type: cell-based
[13] = test system: Bacteroides fragilis sp. thetaiotaomicron 1438; assay: as above; assay type: cell-based
[14] = test system: Bacteroides fragilis sp. fragilis 1470; assay: as above; assay type: cell-based
[15] = test system: Bacteroides fragilis sp. fragilis 110; assay: as above; assay type: cell-based
[16] = test system: Bacteroides fragilis sp. fragilis 103; assay: as above; assay type: cell-based
[17] = test system: Bacteroides fragilis sp. vulgatis 1563; assay: as above; assay type: cell-based
[18] = test system: Bacteroides fragilis sp. fragilis 113; assay: as above; assay type: cell-based
[19] = test system: Bacteroides fragilis sp. fragilis 112; assay: as above; assay type: cell-based
[20] = test system: Bacteroides vulgatis 1211; assay: as above; assay type: cell-based; conditions: Bacteroides, 1211, 24 h, read-out: 24 Hr. MIC
[21] = test system: Bacteroides fragilis sp. fragilis 106; assay: as above; assay type: cell-based
[22] = test system: Peptococcus asaccharolyticus 1302; assay: as above; assay type: cell-based; conditions: Peptoniphilus asaccharolyticus, 1302, 24 h, read-out: 24 Hr. MIC
[23] = test system: Bacteroides fragilis sp. fragilis 111; assay: as above; assay type: cell-based
[24] = test system: Bacteroides fragilis sp. fragilis 1874; assay: as above; assay type: cell-based
[25] = test system: Bacteroides fragilis sp. fragilis 62; assay: as above; assay type: cell-based
[26] = test system: Bacteroides melaninogenicus 1856/28; assay: as above; assay type: cell-based; conditions: Prevotella intermedia, 1856/28, 24 h, read-out: 24 Hr. MIC
[27] = test system: Eubacterium aerofaciens 1235; assay: as above; assay type: cell-based; conditions: Collinsella aerofaciens, 1235, 24 h, read-out: 24 Hr. MIC
[28] = test system: Bacteroides fragilis sp. fragilis 1936B; assay: as above; assay type: cell-based; conditions: Bacteroides fragilis, 24 h, read-out: 24 Hr. MIC
[29] = test system: Clostridium septicum 1128; assay: as above; assay type: cell-based; conditions: Clostridium septicum, 1128, 24 h, 37° C.
Experimental: The susceptibility of anaerobic bacteria, both gram positive and gram negative, to a representative number of the novel compounds of this application was determined using the agar dilution method. The bacteria used were isolated from patients hospitalized at the Indiana Univerisity Medical Center. The isolates were identified in the anaerobe laboratory of the Medical Center by the criteria established by Dowell et al., Laboratory Methods in Anaerobic Bacteriology. Public Health Serv. Publ. NO. 1803 (1968) [Center for Disease Control, Atlanta, Ga.]; and by Smith et al., The Pathogenic Anaerobic Bacteria, pages 96- 136 (1968) [Charles C. Thomas, Publisher, Springfield, Ill.]. All the organisms were maintained in chopped meat glucose medium (Scott Labs) at room temperature.
The method used for the agar dilution tests was based on the studies of Sutter et al., Antimicrob. Ag. Chemother. 3, 188-193 (1973). The strains of anaerobic bacteria were grown in 16×× 120 mm. tubes for 16 to 18 hours in Thioglycolate medium without indicator-- 135C (Becton, Dickinson and Co.), to which was added 5 mcg. of hemin per milliliter prior to autoclaving, plus 1 mg. of sodium bicarbonate and 0.1 mcg. of filter-sterilized menadione per milliliter after autoclaving. The strains were adjusted to the turbidity of the No. 1 McFarland standard in Thioglycolate medium without indicator-- 135C containing an additional 0.13 percent Bacto-agar (Difco). Each strain was then applied to the surface of the petri plate (100 mm× 15 mm.) by means of a replicator.
For the agar dilution studies, two-fold dilutions of the test compounds were prepared in deionized water to which was then added laked sheep blood and filter-sterilized menadione so the concentrations after the agar dilution were 5 percent and 10 mcg./ml. respectively. An equal volume of double strength Brucella agar (Becton, Dickinson and Co.) was mixed with each dilution in a water bath held at 50° C. and then poured onto the petri dishes.
All of the procedures were done inside a plastic glove box, except for the incubation of the growth tubes and the pouring of the plates. After the plates hardened, they were put inside the glove box for a minimum of 2 hours before they were inoculated. Generally, the glove box procedures of Aranki et al., Applied Microbiology 17, 568-576 (1969), were followed, but the following modifications were used. Dry materials were introduced into the glove box by evacuating the lock to 28 inches of mercury and filling once with nitrogen gas, followed by evacuating in the same manner and filling with an 80 percent nitrogen plus 10 percent CO2 plus 10 percent hydrogen gas mixture. Liquid media and agar plates were introduced into the glove box by evacuating the lock to 10 inches of mercury and filling with gas four times. The nitrogen gas was used to fill the lock for the first two cycles of evacuation, with the gas mixture described above used for the final two fillings.
All the plates were incubated at 37° C. in Gas Pak jars (Becton, Dickinson and Co.) containing palladium-coated alumina catalysts (reactivated after each use). The results of the agar dilution tests were read after about 24 hours of incubation. The minimum inhibitory concentration (MIC) was recorded as the lowest concentration of test compound at which there was no growth.
The test compounds are identified by the number of the example describing their preparation. The antibiotics clindamycin (C), and erythromycin (E) were also run simultaneously with the novel compounds of this application,for comparison purposes, and the results are included in Chart 1 below.

[30] = test system: Bacteroides fragilis sp. fragilis 9; assay: as above; assay type: cell-based
[31] = test system: Peptostreptococcus intermedius 1264; assay: as above; assay type: cell-based; conditions: Peptostreptococcus, 1264, 24 h, read-out: 24 Hr. MIC
[32] = test system: Bacteroides fragilis sp. fragilis 107; assay: as above; assay type: cell-based; conditions: Bacteroides fragilis, 24 h, read-out: 24 Hr. MIC
[33] = test system: Fusobacterium necrophorum 6054A; assay: as above; assay type: cell-based; conditions: Fusobacterium necrophorum, 6054A, 24 h, read-out: 24 Hr. MIC
[34] = test system: Bacteroides fragilis sp. fragilis 2; assay: as above; assay type: cell-based; conditions: Bacteroides fragilis, 24 h, read-out: 24 Hr. MIC
[35] = Bacteroides fragilis, 24 h, read-out: 24 Hr. MIC

Cn1nc(-c2ncc([N+](=O)[O-])n2C)c(C#N)c1NC(=O)C(=O)NO [Example 9, N-[4-Cyano-1-methyl-3-(1-methyl-5-nitroimidazol-2-yl)pyrazol-5-yl]-N'-hydroxyoxamide]
Survival Ratio (Salmonella typhimurium): 4/5

CC[C@H]1OC(=O)[C@H](C)[C@@H](O[C@H]2C[C@@](C)(OC)[C@@H](O)[C@H](C)O2)[C@H](C)[C@@H](O[C@@H]2O[C@H](C)C[C@H](N(C)C)[C@H]2O)[C@](C)(O)C[C@@H](C)C(=O)[C@H](C)[C@@H](O)[C@]1(C)O [E, erythromycin, reference compound]
MIC [1]: ≤ 0.5 µg/mL | MIC [2]: 0.5 µg/mL (≈ 0.681 µM) | MIC [3]: ≤ 0.5 µg/mL | MIC [4]: ≤ 0.5 µg/mL | MIC [5, 35]: 2 µg/mL (≈ 2.73 µM) | MIC [6, 35]: 2 µg/mL (≈ 2.73 µM) | MIC [7]: 1 µg/mL (≈ 1.36 µM) | MIC [8]: 2 µg/mL (≈ 2.73 µM) | MIC [9]: ≤ 0.5 µg/mL | MIC (Peptococcus prevoti 1281): > 128 µg/mL | MIC [10]: 1 µg/mL (≈ 1.36 µM) | MIC [11]: ≤ 0.5 µg/mL | MIC [12, 35]: > 64 µg/mL | MIC [13, 35]: 1 µg/mL (≈ 1.36 µM) | MIC [14, 35]: 8 µg/mL (≈ 10.9 µM) | MIC [15, 35]: 16 µg/mL (≈ 21.8 µM) | MIC [16, 35]: 4 µg/mL (≈ 5.45 µM) | MIC [17, 35]: 1 µg/mL (≈ 1.36 µM) | MIC [18, 35]: 2 µg/mL (≈ 2.73 µM) | MIC [19, 35]: 32 µg/mL (≈ 43.6 µM) | MIC [20]: 1 µg/mL (≈ 1.36 µM) | MIC [21, 35]: 4 µg/mL (≈ 5.45 µM) | MIC [22]: 1 µg/mL (≈ 1.36 µM) | MIC [23, 35]: 2 µg/mL (≈ 2.73 µM) | MIC [24, 35]: 0.5 µg/mL (≈ 0.681 µM) | MIC [25, 35]: 8 µg/mL (≈ 10.9 µM) | MIC [26]: 4 µg/mL (≈ 5.45 µM) | MIC [27]: ≤ 0.5 µg/mL | MIC [28]: 2 µg/mL (≈ 2.73 µM) | MIC [29]: 1 µg/mL (≈ 1.36 µM) | MIC [30, 35]: 4 µg/mL (≈ 5.45 µM) | MIC [31]: ≤ 0.5 µg/mL | MIC [32]: 2 µg/mL (≈ 2.73 µM) | MIC [33]: 8 µg/mL (≈ 10.9 µM) | MIC [34]: 4 µg/mL (≈ 5.45 µM)

CCOC(=O)C(=O)Nc1c(C#N)c(-c2ncc([N+](=O)[O-])n2C)nn1C [Example 3, N-[4-Cyano-1-methyl-3-(1-methyl-5-nitroimidazol-2-yl)pyrazol-5-yl]oxamic acid, ethyl ester, potassium salt]
24 Hr. MIC ([5]; agar dilution, 37° C., Bacteroides fragilis sp. fragilis 1877, potassium salt): 0.25 µg/mL | 24 Hr. MIC ([6]; agar dilution, 37° C., Bacteroides fragilis sp. fragilis 108, potassium salt): 0.25 µg/mL | 24 Hr. MIC ([12]; agar dilution, 37° C., Bacteroides fragilis sp. thetaiotaomicron 1900A, potassium salt): 0.5 µg/mL | 24 Hr. MIC ([13]; agar dilution, 37° C., Bacteroides fragilis sp. thetaiotaomicron 1438, potassium salt): 0.5 µg/mL | 24 Hr. MIC ([14]; agar dilution, 37° C., Bacteroides fragilis sp. fragilis 1470, potassium salt): 0.25 µg/mL | 24 Hr. MIC ([15]; agar dilution, 37° C., Bacteroides fragilis sp. fragilis 110, potassium salt): 0.5 µg/mL | 24 Hr. MIC ([16]; agar dilution, 37° C., Bacteroides fragilis sp. fragilis 103, potassium salt): 0.125 µg/mL | 24 Hr. MIC ([17]; agar dilution, 37° C., Bacteroides fragilis sp. vulgatis 1563, potassium salt): 0.25 µg/mL | 24 Hr. MIC ([18]; agar dilution, 37° C., Bacteroides fragilis sp. fragilis 113, potassium salt): 0.5 µg/mL | 24 Hr. MIC ([19]; agar dilution, 37° C., Bacteroides fragilis sp. fragilis 112, potassium salt): 0.25 µg/mL | Survival Ratio (Salmonella typhimurium; potassium salt): 3/5 | 24 Hr. MIC ([21]; agar dilution, 37° C., Bacteroides fragilis sp. fragilis 106, potassium salt): 0.25 µg/mL | 24 Hr. MIC ([23]; agar dilution, 37° C., Bacteroides fragilis sp. fragilis 111, potassium salt): 0.25 µg/mL | 24 Hr. MIC ([24]; agar dilution, 37° C., Bacteroides fragilis sp. fragilis 1874, potassium salt): 0.25 µg/mL | 24 Hr. MIC ([25]; agar dilution, 37° C., Bacteroides fragilis sp. fragilis 62, potassium salt): 0.5 µg/mL | 24 Hr. MIC ([30]; agar dilution, 37° C., Bacteroides fragilis sp. fragilis 9, potassium salt): 0.25 µg/mL
